Test systems include SK-MEL-28; ACHN; OVCAR-4; U-251; EKVX; OVCAR-3; NCI-H23; SR; SK-MEL-2; MDA-MB-435; HOP-62; SN12C; UACC-257; DU-145; NCI-H522; SW-620; BT-549; HOP-92; SNB-75.
Assay in all cases: growth of human tumour cells (NCI), 48 h

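48-hour exposure; five concentrations; linearly interpolated endpoints. GI50 marks 50% less growth.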 Activity calls are given as the source filed them. Cut-off read from the data, not from the text of the source: active = GI50 up to about 1.1 µM and inactive = higher. A value given as a limit tells only on which side of the number the result lay.

Consider `O=C(O)CCc1ccc2c(c1)C(=O)CC2`, for which the GI50 in the experiment on SK-MEL-28, with ACHN, with OVCAR-4, in the experiment on U-251, in the experiment with EKVX and in the experiment with OVCAR-3 was > 100 µM (inactive) throughout. The GI50 in the experiment with NCI-H23, in the experiment with SR, in the experiment with SK-MEL-2, in the experiment with MDA-MB-435, with HOP-62 and in the experiment on SN12C was > 100 µM (inactive) each time. The GI50 with UACC-257, in the experiment with DU-145, in the experiment on NCI-H522, with SW-620 and in the experiment with BT-549 was > 100 µM (inactive) each time.

On to `O=C1Nc2ccccc2/C1=N/Nc1nc(-c2ccc(Br)cc2)cs1`, for which the GI50 with SK-MEL-28 was 12.6 µM (inactive); in the experiment with ACHN, 17.5 µM (inactive); in the experiment with OVCAR-4 it was 18.5 µM (inactive); with U-251 it was 14.3 µM (inactive); in the experiment on EKVX, 7.85 µM (inactive); in the experiment on OVCAR-3, 20.7 µM (inactive). The GI50 was 27.2 µM (inactive) with NCI-H23; 46.1 µM (inactive) with SK-MEL-2; 36.5 µM (inactive) in the experiment with MDA-MB-435; 11.4 µM (inactive) in the experiment on HOP-92; 14.6 µM (inactive) in the experiment with HOP-62; 27.1 µM (inactive) with SN12C. Moreover, the GI50 was 22.7 µM (inactive) in the experiment on UACC-257; 19.7 µM (inactive) in the experiment with SNB-75; 23.3 µM (inactive) in the experiment on DU-145; 25.9 µM (inactive) in the experiment on NCI-H522; 28.2 µM (inactive) in the experiment with SW-620; 20 µM (inactive) in the experiment on BT-549.

On to `O=c1[nH]c2ccccc2c(=O)c2cc3ccccc3cc12`, for which the GI50 in the experiment with SK-MEL-28 was 67 µM (inactive); with ACHN it was 33.7 µM (inactive); in the experiment with OVCAR-4, 23.4 µM (inactive); in the experiment on U-251, 6.28 µM (inactive); with EKVX, > 100 µM (inactive); in the experiment on OVCAR-3, 22.7 µM (inactive). For the same molecule, the GI50 in the experiment with NCI-H23 is 19.1 µM (inactive); in the experiment on SK-MEL-2, 22.5 µM (inactive); in the experiment on MDA-MB-435, > 100 µM (inactive); with HOP-92 it was 3.9 µM (inactive); in the experiment on HOP-62, 10.4 µM (inactive); in the experiment on SN12C, 71.4 µM (inactive). The GI50 is > 100 µM (inactive) in the experiment on UACC-257; 3.92 µM (inactive) in the experiment on SNB-75; 26.9 µM (inactive) in the experiment on DU-145; 10.6 µM (inactive) in the experiment with NCI-H522; 65.5 µM (inactive) in the experiment with SW-620; 15.7 µM (inactive) with BT-549.

As to `Cn1c(=O)c(C(=O)Nc2nc(C34CC5CC(CC(C5)C3)C4)cs2)c(O)c2ccccc21`, the GI50 in the experiment on SK-MEL-28 is > 100 µM (inactive); with ACHN, 24.3 µM (inactive); in the experiment on OVCAR-4, > 100 µM (inactive); in the experiment on U-251 it was 57.5 µM (inactive); with EKVX, > 100 µM (inactive); in the experiment on OVCAR-3 it was > 100 µM (inactive). In addition, the GI50 was > 100 µM (inactive) in the experiment on NCI-H23; 38.2 µM (inactive) with SR; > 100 µM (inactive) in the experiment with MDA-MB-435; 18.2 µM (inactive) with HOP-92; 10.7 µM (inactive) with HOP-62; > 100 µM (inactive) in the experiment on SN12C. The GI50 with UACC-257 was > 100 µM (inactive); in the experiment on SNB-75, 56.1 µM (inactive); in the experiment with DU-145 it was > 100 µM (inactive); in the experiment on NCI-H522, 55.3 µM (inactive); in the experiment on SW-620 it was > 100 µM (inactive); in the experiment with BT-549, 75.2 µM (inactive).

`COc1cc2c(cc1OCCCCCCCCCCN1C(=O)c3cccc4cccc(c34)C1=O)N=C[C@@H]1CCCN1C2=O`: the GI50 in the experiment with SK-MEL-28 was 12.3 µM (inactive); in the experiment with ACHN, 10 µM (inactive); in the experiment with OVCAR-4 it was 1.31 µM (inactive); with U-251, 3.37 µM (inactive); in the experiment on EKVX it was 2.11 µM (inactive); in the experiment with OVCAR-3, 3.73 µM (inactive). Also, the GI50 is 6.21 µM (inactive) in the experiment with NCI-H23; 0.902 µM (active) in the experiment on SR; 3.74 µM (inactive) in the experiment with SK-MEL-2; 4.25 µM (inactive) with MDA-MB-435; 14.3 µM (inactive) in the experiment on HOP-62; 4.42 µM (inactive) in the experiment on SN12C. In addition, the GI50 in the experiment with UACC-257 is 16.1 µM (inactive); in the experiment on SNB-75, 4.58 µM (inactive); in the experiment on DU-145, 13.2 µM (inactive); in the experiment on NCI-H522, 6.67 µM (inactive); in the experiment with SW-620 it was 4.34 µM (inactive); in the experiment on BT-549 it was 6.25 µM (inactive).

On to `CSc1c(C#N)c(S)n(-c2ccc(Cl)cc2)c(=O)c1C#N`, for which the GI50 in the experiment on SK-MEL-28 is > 100 µM (inactive); in the experiment with OVCAR-4, 46.1 µM (inactive); in the experiment with U-251 it was > 100 µM (inactive); with EKVX it was > 100 µM (inactive); in the experiment on OVCAR-3, > 100 µM (inactive); in the experiment with NCI-H23, 39.6 µM (inactive). Moreover, the GI50 in the experiment on SR was 33 µM (inactive); in the experiment on SK-MEL-2 it was > 100 µM (inactive); in the experiment with MDA-MB-435 it was > 100 µM (inactive); with SN12C it was > 100 µM (inactive); in the experiment with UACC-257, > 100 µM (inactive); in the experiment with SNB-75, > 100 µM (inactive). Besides, the GI50 was > 100 µM (inactive) in the experiment with DU-145, 50.9 µM (inactive) with NCI-H522, > 100 µM (inactive) in the experiment on SW-620 and > 100 µM (inactive) with BT-549.

Turning to `CNc1ccc(OC)cc1S(=O)(=O)c1ccccc1[N+](=O)[O-]`, the GI50 was > 100 µM (inactive) in the experiment on SK-MEL-28; > 100 µM (inactive) in the experiment on ACHN; > 100 µM (inactive) with OVCAR-4; > 100 µM (inactive) with U-251; 47.1 µM (inactive) in the experiment on EKVX; > 100 µM (inactive) in the experiment with OVCAR-3. Besides, the GI50 in the experiment on NCI-H23, with SR, with SK-MEL-2, with MDA-MB-435, with HOP-62 and with SN12C was > 100 µM (inactive) throughout. Besides, the GI50 with SNB-75 was > 100 µM (inactive); in the experiment with DU-145 it was > 100 µM (inactive); with NCI-H522, 92.3 µM (inactive); with SW-620, > 100 µM (inactive); in the experiment with BT-549, 75.2 µM (inactive).

As for `O=S(=O)(c1ccccc1)c1cccc2c1NCCC2`, the GI50 is 36.7 µM (inactive) in the experiment on SK-MEL-28; 58.9 µM (inactive) with ACHN; > 100 µM (inactive) with OVCAR-4; 58.3 µM (inactive) in the experiment with EKVX; 50.7 µM (inactive) in the experiment on OVCAR-3; 38.3 µM (inactive) with SR. Further, the GI50 in the experiment with SK-MEL-2 is > 10 µM (inactive); in the experiment with MDA-MB-435 it was 35.2 µM (inactive); with HOP-92, 28.8 µM (inactive); in the experiment with HOP-62, > 100 µM (inactive); in the experiment with SN12C, 42.7 µM (inactive); in the experiment on UACC-257, 23.6 µM (inactive). The GI50 is 26.1 µM (inactive) in the experiment on SNB-75, 59.4 µM (inactive) in the experiment with DU-145, 40.7 µM (inactive) in the experiment with SW-620 and 20.8 µM (inactive) in the experiment on BT-549.

As for `N=C(N)N/N=C/c1cnn(C(=N)N)c1`, the GI50 in the experiment with SK-MEL-28 was > 100 µM (inactive); with ACHN, > 100 µM (inactive); in the experiment on OVCAR-4, > 100 µM (inactive); in the experiment with U-251, 91 µM (inactive); with EKVX, 45.7 µM (inactive); in the experiment on OVCAR-3 it was > 100 µM (inactive). Besides, the GI50 with NCI-H23 was > 100 µM (inactive); in the experiment with SR, > 100 µM (inactive); in the experiment with MDA-MB-435, > 100 µM (inactive); with HOP-92 it was > 100 µM (inactive); in the experiment with HOP-62 it was > 100 µM (inactive); in the experiment with SN12C, 63.7 µM (inactive). The GI50 is 57.4 µM (inactive) in the experiment on UACC-257; 95.3 µM (inactive) with SNB-75; > 100 µM (inactive) in the experiment on DU-145; > 100 µM (inactive) with NCI-H522; > 100 µM (inactive) in the experiment on SW-620; > 100 µM (inactive) with BT-549.

`c1csc(-c2ccc(-c3cccc4nsnc34)s2)c1`: the GI50 in the experiment with SK-MEL-28 is > 100 µM (inactive); in the experiment on ACHN, > 100 µM (inactive); in the experiment on OVCAR-4, 21.7 µM (inactive); with U-251, 91.2 µM (inactive); with EKVX it was > 100 µM (inactive); in the experiment with OVCAR-3 it was > 100 µM (inactive). Also, the GI50 with NCI-H23 was > 100 µM (inactive); in the experiment on SR, 13 µM (inactive); in the experiment with SK-MEL-2 it was > 100 µM (inactive); in the experiment with MDA-MB-435 it was > 100 µM (inactive); in the experiment with HOP-62, 27.4 µM (inactive); with SN12C, > 100 µM (inactive). For the same molecule, the GI50 in the experiment with UACC-257 is > 100 µM (inactive); in the experiment on SNB-75, 49.3 µM (inactive); with DU-145 it was > 100 µM (inactive); in the experiment with NCI-H522 it was 71.6 µM (inactive); in the experiment with SW-620, > 100 µM (inactive); with BT-549, > 100 µM (inactive).

For `COc1ccc2oc(=O)c(-c3csc(-c4ccccc4)n3)cc2c1`, the GI50 was > 100 µM (inactive) in the experiment with SK-MEL-28; 32 µM (inactive) with ACHN; 31 µM (inactive) in the experiment on OVCAR-4; 21.9 µM (inactive) in the experiment on U-251; 41.4 µM (inactive) in the experiment with EKVX; > 100 µM (inactive) in the experiment on SR. The GI50 in the experiment on SK-MEL-2 is > 100 µM (inactive); with MDA-MB-435, > 100 µM (inactive); in the experiment on HOP-92, 24.3 µM (inactive); in the experiment with HOP-62, 17.4 µM (inactive); with UACC-257, > 100 µM (inactive); in the experiment on SNB-75, 37.3 µM (inactive). For the same molecule, the GI50 is > 100 µM (inactive) in the experiment on DU-145, 57.7 µM (inactive) with SW-620 and 21.4 µM (inactive) with BT-549.

Consider `O=C(O)C(Cc1cc(I)c(O)c(I)c1)C1CCCCC1` (configuration not stated), for which the GI50 with SK-MEL-28 is 59.7 µM (inactive); with ACHN, 30.3 µM (inactive); with OVCAR-4, 59.6 µM (inactive); with U-251, 22.3 µM (inactive); in the experiment on EKVX it was 31.9 µM (inactive); in the experiment with OVCAR-3, 15.6 µM (inactive). Further, the GI50 was 24 µM (inactive) in the experiment on NCI-H23; 33.1 µM (inactive) in the experiment with SR; 60.8 µM (inactive) in the experiment with MDA-MB-435; 33.5 µM (inactive) with HOP-92; 24.5 µM (inactive) in the experiment on HOP-62; 32.2 µM (inactive) in the experiment on SN12C. The GI50 is 45.3 µM (inactive) in the experiment on UACC-257; 37.6 µM (inactive) in the experiment with SNB-75; 33 µM (inactive) in the experiment with DU-145; 29.3 µM (inactive) in the experiment with NCI-H522; 58.9 µM (inactive) in the experiment on SW-620; 34.5 µM (inactive) with BT-549.

Source of the values: ChEMBL document CHEMBL1201862, “PubChem BioAssay data set” (2004).
